Data reported in ChEMBL document CHEMBL5321216, “Discovery of bipyridine amide derivatives targeting pRXRα-PLK1 interaction for anticancer therapy” (Eur J Med Chem, 2023).
pIC50: −log10 of the molar value. Activity calls are given as the source filed them. The rule behind the calls is not given here.

Columns and labels:
[1] = target: T1, Retinoic acid receptor RXR-alpha (Homo sapiens) (UniProt P19793); test: Antagonist activity at RXRalpha (unknown origin) transfected in human HeLa cells assessed as inhibition of CD3254- induced receptor transactivation by measuring remaining luciferase activity at 1 uM incubated for 24 hrs by dual luciferase reporter assay; format: cell-based; conditions: filed as antagonist
T1 sequence (whole entry): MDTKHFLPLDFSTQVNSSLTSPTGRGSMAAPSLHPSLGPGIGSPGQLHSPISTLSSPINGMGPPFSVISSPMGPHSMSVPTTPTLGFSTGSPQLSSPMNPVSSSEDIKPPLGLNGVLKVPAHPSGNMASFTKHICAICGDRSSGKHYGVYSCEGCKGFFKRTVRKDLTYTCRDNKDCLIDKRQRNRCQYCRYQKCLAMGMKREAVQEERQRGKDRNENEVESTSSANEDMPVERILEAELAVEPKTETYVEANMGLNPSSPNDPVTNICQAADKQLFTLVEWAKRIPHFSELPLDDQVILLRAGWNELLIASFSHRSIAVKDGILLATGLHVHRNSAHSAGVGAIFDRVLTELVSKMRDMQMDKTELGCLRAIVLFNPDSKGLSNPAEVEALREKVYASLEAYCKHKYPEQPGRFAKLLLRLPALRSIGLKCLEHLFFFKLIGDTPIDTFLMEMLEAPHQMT

[2] = tested on: A549; test: Antiproliferative activity against human A549 cells assessed as cell viability rate at 5 uM incubated for 72 hrs by MTT assay relative to control; format: functional
[3] = tested on: MDA-MB-231; test: Antiproliferative activity against human MDA-MB-231 cells assessed as cell viability rate at 5 uM incubated for 72 hrs by MTT assay relative to control; format: functional
[4] = tested on: MDA-MB-231; test: Antiproliferative activity against human MDA-MB-231 cells assessed as inhibition of cell proliferation incubated for 72 hrs by MTT assay; format: functional, cell-based; conditions: MDA-MB-231, 72 h
[5] = tested on: HepG2; test: Antiproliferative activity against human HepG2 cells assessed as cell viability rate at 5 uM incubated for 72 hrs by MTT assay relative to control; format: functional
[6] = tested on: A549; test: Induction of apoptosis in human A549 cells assessed as early apoptotic cells at 20 uM incubated for 24 hrs by annexin V-FITC/PI staining based flow cytometry analysis (reference value: 0.78%); format: functional
[7] = tested on: MDA-MB-231; test: Induction of apoptosis in human MDA-MB-231 cells assessed as late apoptotic cells at 20 uM incubated for 24 hrs by annexin V-FITC/PI staining based flow cytometry analysis (reference value: 5.93%); format: functional
[8] = Tmax in Sprague-Dawley rat at 25 mg/kg, ip measured for 48 hrs by LC-MS/MS analysis; format: ADME, organism-based; conditions: in vivo
[9] = Cmax in Sprague-Dawley rat at 25 mg/kg, ip measured for 48 hrs by LC-MS/MS analysis; format: ADME, organism-based; set-up: time 48 hrs, dose 25 mg/kg, route ip; conditions: in vivo
[10] = Apparent clearance during terminal phase in Sprague-Dawley rat at 25 mg/kg, ip measured for 48 hrs by LC-MS/MS analysis; format: ADME, organism-based; conditions: in vivo, read-out: CLz/F (converted)
[11] = Drug absorption in KM mouse at 25 mg/kg, ip measured after 0.5 to 2 hrs; format: ADME, organism-based; conditions: in vivo, time 0.5-2 hrs
[12] = Apparent volume of distribution during terminal phase in Sprague-Dawley rat at 25 mg/kg, ip measured for 48 hrs by LC-MS/MS analysis; format: ADME, organism-based; conditions: in vivo, read-out: Vz/F
[13] = tested on: A549; test: Induction of apoptosis in human A549 cells assessed as dead cells at 20 uM incubated for 24 hrs by annexin V-FITC/PI staining based flow cytometry analysis (reference value: 0.75%); format: functional
[14] = tested on: MDA-MB-231; test: Induction of apoptosis in human MDA-MB-231 cells assessed as early apoptotic cells at 20 uM incubated for 24 hrs by annexin V-FITC/PI staining based flow cytometry analysis (reference value: 2.03%); format: functional
[15] = Drug absorption in KM mouse at 25 mg/kg, po measured after 0.5 to 2 hrs; format: ADME, organism-based; conditions: in vivo, time 0.5-2 hrs
[16] = tested on: A549; test: Induction of apoptosis in human A549 cells assessed as live cells at 20 uM incubated for 24 hrs by annexin V-FITC/PI staining based flow cytometry analysis (reference value: 93.2%); format: functional
[17] = tested on: MDA-MB-231; test: Induction of apoptosis in human MDA-MB-231 cells assessed as live cells at 20 uM incubated for 24 hrs by annexin V-FITC/PI staining based flow cytometry analysis (reference value: 91.3%); format: functional
[18] = Elimination half life in Sprague-Dawley rat at 25 mg/kg, ip measured for 48 hrs by LC-MS/MS analysis; format: ADME, organism-based; conditions: in vivo, read-out: beta t1/2 (converted)
[19] = tested on: A549; test: Induction of apoptosis in human A549 cells assessed as late apoptotic cells at 20 uM incubated for 24 hrs by annexin V-FITC/PI staining based flow cytometry analysis (reference value: 5.28%); format: functional
[20] = AUC (0 to infinity) in Sprague-Dawley rat at 25 mg/kg, ip measured for 48 hrs by LC-MS/MS analysis; format: ADME, organism-based; set-up: time 48 hrs, dose 25 mg/kg, route ip; conditions: in vivo
[21] = tested on: MDA-MB-231; test: Induction of apoptosis in human MDA-MB-231 cells assessed as dead cells at 20 uM incubated for 24 hrs by annexin V-FITC/PI staining based flow cytometry analysis (reference value: 0.69%); format: functional
[22] = target: T1, Retinoic acid receptor RXR-alpha (Homo sapiens); test: Antagonist activity at RXRalpha (unknown origin) transfected in human HeLa cells assessed as inhibition of CD3254- induced receptor transactivation by measuring remaining luciferase activity at 1 uM incubated for 24 hrs by dual luciferase reporter assay relative to control; format: cell-based; conditions: filed as antagonist

| inhibition [1] | pIC50 [4] | SMILES | Activity [2] [%] | Activity [3] [%] | Activity [5] [%] | further results |
| --- | --- | --- | --- | --- | --- | --- |
| Active | 6.06 | O=C(CCc1ccccc1)Nc1cc(-c2ccnc(N3CCC(CO)CC3)c2)ccn1 | 62.19 | 25.7 | 37.04 | – |
| Active | – | Cc1cccc(CC(=O)Nc2cc(-c3ccnc(N4CCC(C)CC4)c3)ccn2)c1 | 108.84 | 93.87 | 106.32 | – |
| Active | – | COc1cccc(CC(=O)Nc2cc(-c3ccnc(N4CCC(CO)CC4)c3)ccn2)c1 | 94.17 | 72.35 | 92.25 | – |
| Active | – | Cc1ccc(CC(=O)Nc2ccc(-c3ccnc(N4CCC(CO)CC4)c3)cn2)cc1 | 72.28 | 54.12 | 51.27 | – |
| Active | – | Cc1cccc(CC(=O)Nc2cc(-c3ccnc(N4CCC(CO)CC4)c3)ccn2)c1 | 73.92 | 46.82 | 60.73 | – |
| – | 5.46 | O=C(Cc1cccc(F)c1)Nc1ccc(-c2ccnc(N3CCC(CO)CC3)c2)cn1 | 58.17 | 36.36 | 65.95 | Activity [22]: < 50% |
| Active | – | O=C(Cc1cccc(F)c1)Nc1cc(-c2ccnc(N3CCC(CO)CC3)c2)ccn1 | 98.62 | 82.84 | 88.95 | – |
| Active | 5.84 | CC1CCN(c2cc(-c3ccc(NC(=O)Cc4cccc(F)c4)nc3)ccn2)CC1 | 64.69 | 44.58 | 59.64 | – |
| Active | – | COc1cccc(CC(=O)Nc2cc(-c3ccnc(N4CCC(C)CC4)c3)ccn2)c1 | 114.18 | 83.56 | 110.22 | – |
| – | – | COc1cccc(CC(=O)Nc2ccc(-c3ccnc(N4CCN(C)CC4)c3)cn2)c1 | 103.91 | 99.26 | 85.3 | – |
| Active | 5.58 | Cc1cccc(/C=C/C(=O)Nc2cc(-c3ccnc(N4CCC(CO)CC4)c3)ccn2)c1 | 53.6 | 34.47 | 27.5 | – |
| Active | – | Cc1ccc(CC(=O)Nc2ccc(-c3ccnc(N4CCN(C)CC4)c3)cn2)cc1 | 103.32 | 85.44 | 98.32 | – |
| Active | 7.36 | O=C(/C=C/c1cccc(F)c1)Nc1cc(-c2ccnc(N3CCC(CO)CC3)c2)ccn1 | 55.98 | 31.06 | 46.35 | – |
| Active | 5.50 | COc1cccc(CC(=O)Nc2ccc(-c3ccnc(N4CCC(C)CC4)c3)cn2)c1 | 80.24 | 47.74 | 55.19 | – |
| Active | – | Cc1ccc(CC(=O)Nc2ccc(-c3ccnc(N4CCC(C)CC4)c3)cn2)cc1 | 91.24 | 76.9 | 88.24 | – |
| – | – | Cc1cccc(/C=C/C(=O)Nc2ccc(-c3ccnc(N4CCC(CO)CC4)c3)cn2)c1 | 41 | 38.51 | 38.09 | – |
| – | 5.83 | Cc1cccc(CC(=O)Nc2ccc(-c3ccnc(N4CCC(C)CC4)c3)cn2)c1 | 75.58 | 44.06 | 42.4 | Activity [22]: < 50% |
| – | 5.13 | COc1cccc(CC(=O)Nc2ccc(-c3ccnc(N4CCC(CO)CC4)c3)cn2)c1 | 77.14 | 34.49 | 27.89 | Activity [22]: < 50% |
| – | – | CN(CCO)c1cc(-c2ccc(NC(=O)Cc3cccc(F)c3)nc2)ccn1 | 92.91 | 101.43 | 91.54 | – |
| Active | – | CC1CCN(c2cc(-c3ccnc(NC(=O)Cc4cccc(F)c4)c3)ccn2)CC1 | 103.8 | 91.09 | 93.8 | – |
| – | – | O=C(/C=C/c1ccccc1)Nc1ccc(-c2ccnc(N3CCC(CO)CC3)c2)cn1 | 52.67 | 40.55 | 31.76 | – |
| – | – | O=C(/C=C/c1cccc(F)c1)Nc1ccc(-c2ccnc(N3CCC(CO)CC3)c2)cn1 | 42.31 | 51.3 | 31.25 | – |
| – | – | Cc1cccc(CC(=O)Nc2ccc(-c3ccnc(N(C)CCO)c3)cn2)c1 | 93.2 | 51.81 | 89.85 | – |
| – | – | Cc1cccc(CC(=O)Nc2ccc(-c3ccnc(N4CCN(C)CC4)c3)cn2)c1 | 126.23 | 112.17 | 86.83 | Activity [22]: < 50% |
| – | – | COc1cccc(CC(=O)Nc2ccc(-c3ccnc(N(C)CCO)c3)cn2)c1 | 93.45 | 96.96 | 86.14 | – |
| – | – | CN1CCN(c2cc(-c3ccc(NC(=O)Cc4cccc(F)c4)nc3)ccn2)CC1 | 113.37 | 87.66 | 84.3 | – |
| – | 5.69 | Cc1cccc(CC(=O)Nc2ccc(-c3ccnc(N4CCC(CO)CC4)c3)cn2)c1 | 63.99 | 32.19 | 29.6 | Activity [22]: < 50% |
| – | – | Cc1ccc(CC(=O)Nc2ccc(-c3ccnc(N(C)CCO)c3)cn2)cc1 | 100.97 | 96.17 | 87.52 | – |

| SMILES | inhibition [1] | pIC50 [4] | Activity [2] [%] | Activity [3] [%] | Activity [5] [%] | further results |
| --- | --- | --- | --- | --- | --- | --- |
| COc1ccc(CC(=O)N/N=C/c2c(O)ccc3ccccc23)cc1 | – | 5.16 | 82.65 | 51.93 | 48.65 | Activity [6]: 26.1%; Activity [7]: 12.7%; Tmax [8]: 2.67 h; Cmax [9]: 1060 ng/mL; CL/F [10]: 61.2 mL/min/kg; Drug absorption [11]: Active; Vd/F [12]: 11.3 L/kg; Activity [13]: 1.15%; Activity [14]: 23.5%; Drug absorption [15]: Not Active; Activity [16]: 40.1%; Activity [17]: 62.5%; half-life [18]: 2.13 h; Activity [19]: 32.7%; AUC(0-inf) [20]: 7040 ng·h/mL; Activity [21]: 1.22% |
